Laboratory results published in patent publication US11939314B2, “Quinolin-2-one derivatives” (MERCK PATENT GMBH, priority 2016, dated 2024).

What was measured:
c-Kit(V654A) = molecular target: T1, c-Kit(V654A) (Homo sapiens, UniProt P10721, V654A); test: c-Kit(V654A) assay; type: biochemical; settings: recombinant human c-Kit aa 544-end, 200 μM ATP, 1.4E-06 means 1.4×10^−6, read-out: Inhibition (IC50) of c-KIT (V654A)
T1 construct: amino acids 544-end containing the V654A mutation; GST (N)
Method in brief: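 Radiometric filter-binding read-out: substrate 33P incorporation counted by scintillation after P30 filtermat washes in 75 mM phosphoric acid and methanol. Enzyme: N-GST recombinant human c-Kit aa 544-end carrying V654A.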

PDGFRalpha(V561D) = molecular target: T2, PDGFRalpha(V561D) (Homo sapiens, UniProt P16234, V561D); test: PDGFRalpha(V561D) assay; type: biochemical; settings: recombinant human PDGFRalpha aa 550-end, 200 μM ATP, 1.4E-06 means 1.4×10^−6, read-out: Inhibition (IC50) of PDGFRα (V561D)
T2 construct: recombinant human PDGFRalpha, amino acids 550end containing the V561 D mutation; 6His (N)
T2 sequence (P16234 550-1089 V561D): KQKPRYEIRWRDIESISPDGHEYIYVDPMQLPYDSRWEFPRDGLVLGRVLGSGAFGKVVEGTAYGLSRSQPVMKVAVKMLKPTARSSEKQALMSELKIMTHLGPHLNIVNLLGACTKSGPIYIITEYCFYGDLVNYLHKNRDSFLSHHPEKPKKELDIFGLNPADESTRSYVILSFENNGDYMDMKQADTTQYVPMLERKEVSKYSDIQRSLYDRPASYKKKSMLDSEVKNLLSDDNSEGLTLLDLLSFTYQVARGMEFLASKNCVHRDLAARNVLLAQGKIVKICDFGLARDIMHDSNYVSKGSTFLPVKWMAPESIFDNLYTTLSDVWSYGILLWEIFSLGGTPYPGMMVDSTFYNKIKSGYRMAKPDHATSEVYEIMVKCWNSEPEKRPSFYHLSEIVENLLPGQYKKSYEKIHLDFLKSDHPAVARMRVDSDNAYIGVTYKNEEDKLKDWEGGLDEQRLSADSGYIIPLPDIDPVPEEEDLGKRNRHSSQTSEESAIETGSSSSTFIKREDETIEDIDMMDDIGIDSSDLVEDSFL
Method in brief: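 Radiometric filter-binding assay: substrate phosphorylation by recombinant N-His-tagged human PDGFRα 550-end V561D was quenched with 3% phosphoric acid after 40 min at room temperature, then counted.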

T1 sequence (P10721 544-976 V654A): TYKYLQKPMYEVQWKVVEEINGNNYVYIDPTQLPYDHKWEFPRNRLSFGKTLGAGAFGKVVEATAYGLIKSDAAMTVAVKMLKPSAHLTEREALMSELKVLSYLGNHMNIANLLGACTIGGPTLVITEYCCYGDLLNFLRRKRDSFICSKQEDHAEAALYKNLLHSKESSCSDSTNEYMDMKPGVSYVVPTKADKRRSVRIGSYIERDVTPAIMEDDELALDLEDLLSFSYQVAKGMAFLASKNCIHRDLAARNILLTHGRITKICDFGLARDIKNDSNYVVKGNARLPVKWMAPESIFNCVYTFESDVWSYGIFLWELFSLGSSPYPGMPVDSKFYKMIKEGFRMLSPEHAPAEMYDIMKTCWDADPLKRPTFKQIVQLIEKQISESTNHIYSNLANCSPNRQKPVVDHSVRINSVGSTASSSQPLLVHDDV

SMILES | IC50 (c-Kit(V654A)) [nM] | IC50 (PDGFRalpha(V561D)) [nM]
CN(C)C[C@H]1CCCN1C(=O)c1ccc(-n2cc(-c3cc4cc(F)ccc4[nH]c3=O)nn2)cc1 [A321, 3-{1-[4-((R)-2-dimethylaminomethyl-pyrrolidine-1-carbonyl)-phenyl]-1H-[1,2,3]triazol-4-yl}-6-fluoro-1H-quinolin-2-one] | 44 | 370
CN(C)C[C@H]1CCCN1C(=O)c1ccc(-n2cc(-c3cc4cc(Cl)ccc4[nH]c3=O)nn2)cc1 [A322, 6-chloro-3-{1-[4-((R)-2-dimethylaminomethyl-pyrrolidine-1-carbonyl)-phenyl]-1H-[1,2,3]triazol-4-yl}-1H-quinolin-2-one] | 25 | 65
CN(C)C[C@@H]1CCCN1C(=O)c1ccc(-n2cc(-c3cc4cc(F)c(F)cc4[nH]c3=O)nn2)cc1 [A323, 3-{1-[4-((S)-2-dimethylaminomethyl-pyrrolidine-1-carbonyl)-phenyl]-1H-[1,2,3]triazol-4-yl}-6,7-difluoro-1H-quinolin-2-one] | 220 | 220
CN(C)C[C@@H]1CCCN1C(=O)c1ccc(-n2cc(-c3cc4cc(F)ccc4[nH]c3=O)cn2)cc1 [A324, 3-{1-[4-((S)-2-dimethylaminomethyl-pyrrolidine-1-carbonyl)-phenyl]-1H-pyrazol-4-yl}-6-fluoro-1H-quinolin-2-one] | 270 | 7.2
CN(C)C[C@H]1CCCN1C(=O)c1ccc(-n2cc(-c3cc4cc(F)ccc4[nH]c3=O)cn2)cc1 [A325, 3-{1-[4-((R)-2-dimethylaminomethyl-pyrrolidine-1-carbonyl)-phenyl]-1H-pyrazol-4-yl}-6-fluoro-1H-quinolin-2-one] | 17 | 3.8
CN(C)C[C@@H]1CCN(C(=O)c2ccc(-n3cc(-c4cc5cc(F)ccc5[nH]c4=O)nn3)cc2)C1 [A326, 3-{1-[4-((S)-3-dimethylaminomethyl-pyrrolidine-1-carbonyl)-phenyl]-1H-[1,2,3]triazol-4-yl}-6-fluoro-1H-quinolin-2-one] | 180 | 940
CN1C[C@@H]2CN(C(=O)c3ccc(-n4cc(-c5cc6cc(F)ccc6[nH]c5=O)nn4)cc3)C[C@@H]2C1 [A327, 6-fluoro-3-{1-[4-((cis)-5-methyl-hexahydro-pyrrolo[3,4-c]pyrrole-2-carbonyl)-phenyl]-1H-[1,2,3]triazol-4-yl}-1H-quinolin-2-one] | 14 | 220
CN(C)[C@@H]1CCCN(C(=O)c2ccc(-n3cc(-c4cc5cc(F)c(F)cc5[nH]c4=O)nn3)cc2)C1 [A328, 3-{1-[4-((R)-3-dimethylamino-piperidine-1-carbonyl)-phenyl]-1H-[1,2,3]triazol-4-yl}-6,7-difluoro-1H-quinolin-2-one] | 40 | 97
CN(C)[C@H]1CCCN(C(=O)c2ccc(-n3cc(-c4cc5cc(F)c(F)cc5[nH]c4=O)nn3)cc2)C1 [A329, 3-{1-[4-((S)-3-dimethylamino-piperidine-1-carbonyl)-phenyl]-1H-[1,2,3]triazol-4-yl}-6,7-difluoro-1H-quinolin-2-one] | 73 | 92
CN(C)[C@H]1[C@@H]2CN(C(=O)c3ccc(-n4cc(-c5cc6cc(F)ccc6[nH]c5=O)nn4)cc3)C[C@@H]21 [A330, 3-{1-[4-(6-dimethylamino-3-aza-bicyclo[3.1.0]hexane-3-carbonyl)-phenyl]-1H-[1,2,3]triazol-4-yl}-6-fluoro-1H-quinolin-2-one] | 48 | 21
CN(C)[C@@H]1CCCN(C(=O)c2ccc(-n3cc(-c4cc5cc(F)ccc5[nH]c4=O)nn3)cc2)C1 [A331, 3-{1-[4-((R)-3-dimethylamino-piperidine-1-carbonyl)-phenyl]-1H-[1,2,3]triazol-4-yl}-6-fluoro-1H-quinolin-2-one] | 63 | 570
CN(C)[C@H]1CCCN(C(=O)c2ccc(-n3cc(-c4cc5cc(F)ccc5[nH]c4=O)nn3)cc2)C1 [A332, 3-{1-[4-((S)-3-dimethylamino-piperidine-1-carbonyl)-phenyl]-1H-[1,2,3]triazol-4-yl}-6-fluoro-1H-quinolin-2-one] | 71 | 100
CN(C)[C@@H]1CCCN(C(=O)c2ccc(-n3cc(-c4cc5ccc(F)cc5[nH]c4=O)nn3)cc2)C1 [A333, 3-{1-[4-((R)-3-dimethylamino-piperidine-1-carbonyl)-phenyl]-1H-[1,2,3]triazol-4-yl}-7-fluoro-1H-quinolin-2-one] | 63 | 120
CN(C)C[C@H]1CCN(C(=O)c2ccc(-n3cc(-c4cc5cc(F)ccc5[nH]c4=O)nn3)cc2)C1 [A334, 3-{1-[4-((R)-3-dimethylaminomethyl-pyrrolidine-1-carbonyl)-phenyl]-1H-[1,2,3]triazol-4-yl}-6-fluoro-1H-quinolin-2-one] | 15 | 41
CN(C)C[C@H]1CCN(C(=O)c2ccc(-n3cc(-c4cc5cc(F)c(F)cc5[nH]c4=O)nn3)cc2)C1 [A335, 3-{1-[4-((R)-3-dimethylaminomethyl-pyrrolidine-1-carbonyl)-phenyl]-1H-[1,2,3]triazol-4-yl}-6,7-difluoro-1H-quinolin-2-one] | 170 | 680
CN(C)[C@H]1CCCN(C(=O)c2ccc(-n3cc(-c4cc5ccc(F)cc5[nH]c4=O)nn3)cc2)C1 [A336, 3-{1-[4-((S)-3-dimethylamino-piperidine-1-carbonyl)-phenyl]-1H-[1,2,3]triazol-4-yl}-7-fluoro-1H-quinolin-2-one] | 180 | 240
CCN(CC)[C@H]1CCCN(C(=O)c2ccc(-n3cc(-c4cc5cc(F)ccc5[nH]c4=O)nn3)cc2)C1 [A337, 3-{1-[4-((S)-3-diethylamino-piperidine-1-carbonyl)-phenyl]-1H-[1,2,3]triazol-4-yl}-6-fluoro-1H-quinolin-2-one] | 75 | 230
CCN(CC)[C@@H]1CCCN(C(=O)c2ccc(-n3cc(-c4cc5cc(F)ccc5[nH]c4=O)nn3)cc2)C1 [A338, 3-{1-[4-((R)-3-diethylamino-piperidine-1-carbonyl)-phenyl]-1H-[1,2,3]triazol-4-yl}-6-fluoro-1H-quinolin-2-one] | 39 | 160
CNc1ccc(-n2cc(-c3cc4cc(F)ccc4[nH]c3=O)nn2)cc1 [A342, 6-fluoro-3-[1-(4-methylamino-phenyl)-1H-[1,2,3]triazol-4-yl]-1H-quinolin-2-one] | 25 | 36
CN(C(=O)[C@H]1CCCO1)c1ccc(-n2cc(-c3cc4cc(F)ccc4[nH]c3=O)nn2)cc1 [A343, (R)-tetrahydro-furan-2-carboxylic acid {4-[4-(6-fluoro-2-oxo-1,2-dihydro-quinolin-3-yl)-[1,2,3]triazol-1-yl]-phenyl}-methyl-amide] | 9 | 85
CN(C(=O)[C@@H]1CCCO1)c1ccc(-n2cc(-c3cc4cc(F)ccc4[nH]c3=O)nn2)cc1 [A344, (S)-tetrahydro-furan-2-carboxylic acid {4-[4-(6-fluoro-2-oxo-1,2-dihydro-quinolin-3-yl)-[1,2,3]triazol-1-yl]-phenyl}-methyl-amide] | 9.7 | 16
CN(C(=O)C1CCOCC1)c1ccc(-n2cc(-c3cc4cc(F)ccc4[nH]c3=O)nn2)cc1 [A345, tetrahydro-pyran-4-carboxylic acid {4-[4-(6-fluoro-2-oxo-1,2-dihydro-quinolin-3-yl)-[1,2,3]triazol-111]-phenyl}-methyl-amide] | 12 | 1500
